{"source": "paper PMC11555673", "about": "“Modulators of the Hop-HSP90 Protein–Protein Interaction Disrupt KSHV Lytic Replication” (ACS Infectious Diseases, 2024)", "key": {"KSHV vIRF3": {"tested_on": "KSHV vIRF3", "type": "cell-based"}, "CDK4": {"tested_on": "CDK4", "test": "Western blot of HSP90 client CDK4 in reactivated TREx-BCBL-1-RTA cells", "type": "cell-based", "conditions": "Figures 7C and S4", "protocol": "The remaining TREx-BCBL-1-RTA cells (after cell viability assay) were harvested and washed twice with ice-cold PBS (pH 7.4). […] Bicinchoninic acid (BCA) protein quantification assay was used to determine the concentration of protein in the lysates. An equal amount of protein samples was denatured in Laemmli SDS loading buffer at 95 °C for 5 min. An equal volume of the denatured protein samples was resolved by SDS-PAGE and transferred to nitrocellulose membranes using the complete Bio-Rad Trans-Blot Turbo Transfer System (Bio-Rad, California). […] The membranes were incubated in an appropriate primary antibody. The primary antibodies used in this study were mouse anti-ORF57 (207.6) monoclonal antibody (Santa Cruz Biotechnology, sc-135746), mouse […]) monoclonal antibody (Novus Biologicals, NB200-167SS), rabbit anti-Hop monoclonal antibody (Abcam, ab126724), mouse anti-Hsp90α/β (F-8) monoclonal antibody (Santa Cruz, sc-13119), anti-CDK4 antibody [EPR4513-32-7] (Abcam, Ab108357), rabbit anti-β-actin [EPR2124] monoclonal antibody (Abcam, Ab213262), and HRP-conjugated anti-GAPDH antibody (EPR6256) (Abcam, ab185059). The membranes were washed three times using TBST and incubated in an appropriate secondary antibody. […]"}, "[1]": {"tested_on": "KSHV-infected TREx-BCBL-1-RTA cells"}, "Hop": {"tested_on": "Hop", "test": "Pulldown from HeLa cell lysates with resin-supported peptides, Western blot for Hop", "type": "binding", "conditions": "incubated overnight with resin-supported peptide, densitometry"}, "HSP90": {"tested_on": "HSP90", "test": "Pulldown from HeLa cell lysates with resin-supported peptides, Western blot for HSP90", "type": "binding", "conditions": "full-length Hop IP experiments"}, "HopTPR2A–HSP90CTD PPI": {"tested_on": "HopTPR2A–HSP90CTD PPI", "test": "ELISA-based solid-phase HopTPR2A–HSP90CTD PPI inhibitory assay", "type": "biochemical", "conditions": "SAR, Figures 2 and 3; peptide 1 as control"}}, "note": "Where no end group is shown, it is not given here. [ ]: non-standard residue; d: D form. SulfoLink = iodoacetyl-modified agarose resin; Mpa = O=C(O)CCS"}
{"substance": "CPP-MAAVD (disulfide) [CPP-19]", "values": [{"measurement": "vIRF3 expression, dose-dependent analysis", "setting": "KSHV vIRF3", "result": "no effect on either"}, {"measurement": "Levels of HSP90 client CDK4", "setting": "CDK4", "result": "same effect was not seen"}, {"measurement": "Cytotoxicity", "setting": "[1]", "result": "negligible cytotoxicity"}, {"measurement": "ORF57 expression, dose-dependent analysis", "setting": "KSHV ORF57", "result": "no effect on either"}]}
{"substance": "IP-5: weakly active peptide 5 immobilized on SulfoLink resin, control (SulfoLink-[Mpa]MEDVE)", "values": [{"measurement": "Hop in elution after pulldown", "setting": "Hop", "result": "only trace amounts of Hop"}, {"measurement": "HSP90 in elution after pulldown", "setting": "HSP90", "result": "not observed"}]}
{"substance": "LWWPD [Peptide 12]", "values": [{"measurement": "HopTPR2A–HSP90CTD PPI disruption activity (in words)", "setting": "HopTPR2A–HSP90CTD PPI", "result": "weak to moderate activity"}]}
